From patent US20100267561A1, “HERBICIDAL PYRIDAZINONE DERIVATIVES” (priority 2007, published 2010)

Key:
Assay in all cases: Test C pre-/postemergence plant response
Format in all cases: in vivo
Details in all cases: Preemergence
[1] = system: pigweed (Amaranthus retroflexus)
Source text: (§1) Seeds of plant species selected from annual bluegrass (Poa annua), blackgrass (Alopecurus myosuroides), canola (Brassica rapa), downy bromegrass (Bromus tectorum), green foxtail (Setaria viridis), Italian ryegrass (Lolium multiflorum), canarygrass (Phalaris minor), pigweed (Amaranthus retroflexus), spring barley (Hordeum vulgare), spring wheat (Triticum aestivum), wild mustard (Sinapis arvensis), wild oat (Avena fatua), windgrass (Apera spica-venti), winter barley (Hordeum vulgare), and winter wheat (Triticum aestivum) were planted and treated preemergence with test chemicals formulated in a non-phytotoxic solvent mixture which included a surfactant. At the same time, plants selected from these crop and weed species were treated with postemergence applications of some of the test chemicals formulated in the same manner. Plants ranged in height from 2 to 18 cm (1- to 4-leaf stage) for postemergence treatments.
(§2) Treated plants and controls were maintained in a controlled growth environment for 15 to 25 days after which time all species were compared to controls and visually evaluated. Plant response ratings, summarized in Table C, are based on a scale of 0 to 100 where 0 is no effect and 100 is complete control. A dash (-) response means no test result.

wild oat (Avena fatua) = system: wild oat (Avena fatua)
Source text: as §1, §2

[2] = system: winter barley (Hordeum vulgare)
Source text: as §1, §2

[3] = system: annual bluegrass (Poa annua)
Source text: as §1, §2

[4] = system: spring wheat (Triticum aestivum)
Source text: as §1, §2

[5] = system: green foxtail (Setaria viridis)
Source text: as §1, §2

[6] = system: blackgrass (Alopecurus myosuroides)
Source text: as §1, §2

[7] = system: downy bromegrass (Bromus tectorum)
Source text: as §1, §2

[8] = system: spring barley (Hordeum vulgare)
Source text: as §1, §2

[9] = system: wild mustard (Sinapis arvensis)
Source text: as §1, §2

[10] = system: Italian ryegrass (Lolium multiflorum)
Source text: as §1, §2

[11] = system: canarygrass (Phalaris minor)
Source text: as §1, §2

[12] = system: winter wheat (Triticum aestivum)
Source text: as §1, §2

[13] = system: windgrass (Apera spica-venti)
Source text: as §1, §2

[14] = 8 g ai/ha, scale 0 to 100 (0 no effect, 100 complete control)
[15] = 16 g ai/ha, scale 0 to 100 (0 no effect, 100 complete control)
[16] = 31 g ai/ha, scale 0 to 100 (0 no effect, 100 complete control)
[17] = 62 g ai/ha, scale 0 to 100, 0 no effect, 100 complete control

Cc1cn(-c2ccc(Cl)cc2)nc1-c1c(O)cnn(C)c1=O [Compound 30, 4-[1-(4-chlorophenyl)-4-methyl-1H-pyrazol-3-yl]-5-hydroxy-2-methyl-3(2H)-pyridazinone]
98: Plant response rating, Blackgrass [6, 17]
20: Plant response rating, Wheat, Spring [4, 17] | Plant response rating, Blackgrass [6, 15]
25: Plant response rating, Foxtail, Green [5, 15]
100: Plant response rating, Foxtail, Green [5, 17]
75: Plant response rating, Ryegrass, Italian [10, 17]
65: Plant response rating, Canarygrass [11, 16]
10: Plant response rating, Foxtail, Green [5, 14]
30: Plant response rating, Oat, Wild (wild oat (Avena fatua); [16]) | Plant response rating, Barley, Spring [8, 16] | Plant response rating, Ryegrass, Italian [10, 15]
50: Plant response rating, Barley, Spring [8, 17]
35: Plant response rating, Windgrass [13, 17]
40: Plant response rating, Oat, Wild (wild oat (Avena fatua); [17])
15: Plant response rating, Barley, Winter [2, 17]
90: Plant response rating, Blackgrass [6, 16] | Plant response rating, Canarygrass [11, 17]
0: Plant response rating, Pigweed [1, 14] | Plant response rating, Pigweed [1, 15] | Plant response rating, Pigweed [1, 16] | Plant response rating, Pigweed [1, 17] | Plant response rating, Oat, Wild (wild oat (Avena fatua); [14]) | Plant response rating, Oat, Wild (wild oat (Avena fatua); [15]) | Plant response rating, Barley, Winter [2, 14] | Plant response rating, Barley, Winter [2, 15] | Plant response rating, Barley, Winter [2, 16] | Plant response rating, Bluegrass [3, 14] | Plant response rating, Bluegrass [3, 15] | Plant response rating, Bluegrass [3, 16] | Plant response rating, Bluegrass [3, 17] | Plant response rating, Wheat, Spring [4, 14] | Plant response rating, Wheat, Spring [4, 15] | Plant response rating, Wheat, Spring [4, 16] | Plant response rating, Blackgrass [6, 14] | Plant response rating, Bromegrass, Downy [7, 14] | Plant response rating, Bromegrass, Downy [7, 15] | Plant response rating, Bromegrass, Downy [7, 16] | Plant response rating, Bromegrass, Downy [7, 17] | Plant response rating, Barley, Spring [8, 14] | Plant response rating, Barley, Spring [8, 15] | Plant response rating, Mustard, Wild [9, 16] | Plant response rating, Ryegrass, Italian [10, 14] | Plant response rating, Canarygrass [11, 14] | Plant response rating, Canarygrass [11, 15] | Plant response rating, Wheat, Winter [12, 14] | Plant response rating, Wheat, Winter [12, 15] | Plant response rating, Wheat, Winter [12, 16] | Plant response rating, Wheat, Winter [12, 17]
60: Plant response rating, Ryegrass, Italian [10, 16]
80: Plant response rating, Foxtail, Green [5, 16]

Cc1cc(-c2ccc(Cl)cc2)nn1-c1c(OS(=O)(=O)c2ccccc2[N+](=O)[O-])cnn(C)c1=O [Compound 51]
40: Plant response rating, Barley, Winter [2, 17] | Plant response rating, Wheat, Winter [12, 17]
15: Plant response rating, Barley, Spring [8, 15]
60: Plant response rating, Wheat, Spring [4, 16]
100: Plant response rating, Foxtail, Green [5, 16] | Plant response rating, Foxtail, Green [5, 17] | Plant response rating, Blackgrass [6, 16] | Plant response rating, Blackgrass [6, 17]
80: Plant response rating, Foxtail, Green [5, 15] | Plant response rating, Canarygrass [11, 16] | Plant response rating, Windgrass [13, 17]
35: Plant response rating, Oat, Wild (wild oat (Avena fatua); [16]) | Plant response rating, Blackgrass [6, 15]
70: Plant response rating, Barley, Spring [8, 17]
90: Plant response rating, Ryegrass, Italian [10, 15] | Plant response rating, Ryegrass, Italian [10, 17] | Plant response rating, Canarygrass [11, 17]
10: Plant response rating, Bluegrass [3, 17] | Plant response rating, Foxtail, Green [5, 14] | Plant response rating, Windgrass [13, 15]
75: Plant response rating, Wheat, Spring [4, 17]
20: Plant response rating, Barley, Spring [8, 16] | Plant response rating, Windgrass [13, 16]
50: Plant response rating, Oat, Wild (wild oat (Avena fatua); [17]) | Plant response rating, Bromegrass, Downy [7, 17]
0: Plant response rating, Pigweed [1, 14] | Plant response rating, Pigweed [1, 15] | Plant response rating, Pigweed [1, 16] | Plant response rating, Pigweed [1, 17] | Plant response rating, Oat, Wild (wild oat (Avena fatua); [14]) | Plant response rating, Oat, Wild (wild oat (Avena fatua); [15]) | Plant response rating, Barley, Winter [2, 14] | Plant response rating, Barley, Winter [2, 15] | Plant response rating, Barley, Winter [2, 16] | Plant response rating, Bluegrass [3, 14] | Plant response rating, Bluegrass [3, 15] | Plant response rating, Bluegrass [3, 16] | Plant response rating, Wheat, Spring [4, 14] | Plant response rating, Wheat, Spring [4, 15] | Plant response rating, Blackgrass [6, 14] | Plant response rating, Bromegrass, Downy [7, 14] | Plant response rating, Bromegrass, Downy [7, 15] | Plant response rating, Bromegrass, Downy [7, 16] | Plant response rating, Barley, Spring [8, 14] | Plant response rating, Mustard, Wild [9, 15] | Plant response rating, Mustard, Wild [9, 16] | Plant response rating, Mustard, Wild [9, 17] | Plant response rating, Ryegrass, Italian [10, 14] | Plant response rating, Canarygrass [11, 14] | Plant response rating, Canarygrass [11, 15] | Plant response rating, Wheat, Winter [12, 14] | Plant response rating, Wheat, Winter [12, 15] | Plant response rating, Wheat, Winter [12, 16] | Plant response rating, Windgrass [13, 14]
